Data: US6586206B1, “Methods for making recombinant proteins using apoptosis inhibitors” (priority 1999, dated 2003)
Residues, ends and D or L forms follow the SMILES beside them. *: point of attachment. Cbz = O=C(OCc1ccccc1)*; CH2F = FC*

Columns and labels:
caspase-3 = caspase-3 activity in CHO culture treated with z-VAD-fmk; format: cell-based, Chinese hamster; conditions: z-VAD-fmk added to the culture at 100 uM, from 48 hours, every 24 hours
Protocol: (§1) FIGS. 9-10 show assay results of CHO cells seeded in 60 mm dishes and exposed to caspase inhibitor, z-VAD-fmk (added to the cell culture at 100 micromolar concentration, 48 hours after seeding). The z-VAD-fmk inhibitor was added to the culture every 24 hours thereafter. Samples were taken every day and analyzed for caspase-3 activity (FIG. 9) and the % viable cells (FIG. 10).
(§2) CHO (dhfr+) cells grown in suspension were seeded at 1 million cells/ml in 60 mm tissue culture dishes. The cell culture media was a serum-free DMEM/Ham F-12 based medium containing recombinant human insulin and trace elements. Viability of the culture on day 0 was 96%. Two plates were analyzed each day for viability by Trypan Blue exclusion and by annexin/PI binding (Clontech) and for viable cell density. The experiment was carried out for 10 days. A chemical inhibitor of caspases, z-VAD-fmk (Enzyme Systems Products) was dissolved in DMSO to make a 100 mM (1000×) stock and 4 ul was added to a 60 mm dish containing 4 ml of culture. The inhibitor was added 48 hours after the start of the experiment (prior to the onset of apoptosis) and a new aliquot of the z-VAD-fmk inhibitor was added every 24 hours. Controls were cultures without any addition and cultures with the addition of DMSO only.

CHO (dhfr+) cells [1] = assay: viability/apoptosis of CHO culture in 60 mm dishes with z-VAD-fmk (Trypan Blue exclusion, annexin/PI); format: cell-based, Chinese hamster
Protocol: as §1, §2

[2] = tested on: serum-free culture of CHO cells; conditions: Goswami et al. 1999; cited from earlier work
different cell lines = conditions: under cell-culture conditions; other investigators; cited from earlier work
NSO myeloma cells = conditions: overexpression in NSO myeloma cells; Murray et al. 1996; cited from earlier work
CHO (dhfr+) cells [3] = assay: effect of p35 expression on viability in 2 liter bioreactors; format: cell-based, Chinese hamster; conditions: p35 expressed in CHO cells vs cpc vector control, 2 liter bioreactor

COC(=O)C[C@H](NC(=O)[C@H](C)NC(=O)[C@@H](NC(=O)OCc1ccccc1)C(C)C)C(=O)CF [z-VAD-fmk] (Cbz-Val-Ala-Asp(OMe)-CH2F)
caspase-3 activity (caspase-3): inhibition of caspase-3 activity
apoptosis in cell cultures (CHO (dhfr+) cells [1]; added at a concentration of about 100 micromolar): can inhibit apoptosis
cell viability (CHO (dhfr+) cells [1]; z-VAD-fmk added to the culture at 100 uM, from 48 hours, every 24 hours): prolongation of cell viability
life of the culture [2]: unable to substantially extend the life

bcl-2: anti-apoptotic gene overexpressed in cultured cells
prevention of cell death (different cell lines): can be effective in preventing different cell lines from death
decline phase characteristics of the cultured cells (NSO myeloma cells): failed to affect the decline phase characteristics

B1: baculovirus p35: apoptosis inhibitor, baculovirus p35, expressed in CHO cells from p35/CPC construct (protein, UniProt P08160 1-299, looked up)
Early 35 kDa protein: MCVIFPVEIDVSQTIIRDCQVDKQTRELVYINKIMNTQLTKPVLMMFNISGPIRSVTRKNNNLRDRIKSKVDEQFDQLERDYSDQMDGFHDSIKYFKDEHYSVSCQNGSVLKSKFAKILKSHDYTDKKSIEAYEKYCLPKLVDERNDYYVAVCVLKPGFENGSNQVLSFEYNPIGNKVIVPFAHEINDTGLYEYDVVAYVDSVQFDGEQFEEFVQSLILPSSFKNSEKVLYYNEASKNKSMIYKALEFTTESSWGKSEKYNWKIFCNGFIYDKKSKVLYVKLHNVTSALNKNVILNTIK
viability in the bioreactor (CHO (dhfr+) cells [3]): prolongation of viability
